According to patent EP4696688A1, “BENZO-FUSED RING COMPOUND INHIBITOR, AND PREPARATION METHOD THEREFOR AND USE THEREOF” (Shanghai Hansoh Biomedical Co., Ltd., priority 2023, dated 2024):

How the values were obtained:
human CYP11B2 = biological target: T1, human CYP11B2 (Homo sapiens, UniProt P19099); experiment: G-402 cell enzyme experiment, CYP11B2 (aldosterone product, HTRF); assay type: cell-based; settings: G-402 cells stably expressing human CYP11B2, 1 µM 11-deoxycorticosterone, 16 h
T1 construct: The main elements of an expression plasmid include ORF of human CYP11B1 or human CYP11B2; expressed in transfected cells
T1 sequence (P19099 25-503): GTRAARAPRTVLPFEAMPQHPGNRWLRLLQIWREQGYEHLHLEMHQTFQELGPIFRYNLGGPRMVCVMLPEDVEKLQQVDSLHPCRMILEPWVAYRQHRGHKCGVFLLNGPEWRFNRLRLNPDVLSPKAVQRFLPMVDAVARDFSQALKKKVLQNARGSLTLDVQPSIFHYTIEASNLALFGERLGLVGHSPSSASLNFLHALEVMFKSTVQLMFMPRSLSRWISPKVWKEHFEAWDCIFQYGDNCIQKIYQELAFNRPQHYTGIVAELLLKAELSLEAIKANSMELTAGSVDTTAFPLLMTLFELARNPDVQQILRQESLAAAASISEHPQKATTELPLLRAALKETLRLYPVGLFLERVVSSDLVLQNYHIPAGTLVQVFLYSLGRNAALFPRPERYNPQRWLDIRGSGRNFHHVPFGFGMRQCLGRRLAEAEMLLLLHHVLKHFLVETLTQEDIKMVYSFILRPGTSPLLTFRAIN
Text: (§1) G-402 cell line was used as host cells to express (by transient or stable transfection) an enzyme of the human CYP11 family. Specifically, G-402 cell lines stably expressing human CYP11B1 and human CYP11B2 were established respectively. […] Therefore, the G-402 cell line is very suitable as a host cell for the ectopic expression of an enzyme of the CYP11 family.
(§2) The G-402 cell line, originally derived from renal myoblastoma, can be obtained from ATCC (CRL-1440). The main elements of an expression plasmid include ORF of human CYP11B1 or human CYP11B2, a suitable promoter (CMV promoter), and a suitable resistance marker (neomycin). The expression plasmid was transfected into G-402 cells by standard technology, and a specific antibiotic was then given for screening. The activity of the enzyme expressed by the screened monoclonal cells was assessed by 11-deoxycorticosterone (substrate of CYP11B2) and 11-deoxycortisol (substrate of CYP11B1).
(§3) The G-402 cells expressing CYP11 plasmid, as established in the above solution, were cultured in McCoy's 5a Modified Medium (ATCC Catalog No. 30-2007) containing 10% FCS and 400 µg/ml G418 in an incubator at 37°C and 5% CO2. A cell enzyme experiment was carried out using DMEM/F12 medium containing 2.5% charcoal-treated FBS and an appropriate concentration of a substrate (1 µM 11-deoxycorticosterone or 1 µM 11-deoxycortisol). In order to detect the activity of the enzyme in the cells, the cells were plated in a 96-well plate and incubated for 16 h. The supernatant was then transferred and analyzed for the concentration of the expected product (the product of CYP11B2: aldosterone; the product of CYP11B1: cortisol). The concentrations of these products were determined by an HTRF experiment of CisBio.
(§4) In the cell enzyme experiment, the inhibitory effect of the test compound on the generated product can reflect the inhibitory effect thereof on the enzyme. The dose-dependent inhibition of the enzyme activity by the compound was calculated by plotting the concentration of the test compound (x axis) versus the measured product level (y axis). Then, the original data was fitted to a 4-parameter sigmoidal function (Morgan-Mercer-Flodin, MMF model) by least square method: y = (AB + Cx^D) / (B + x^D) in which A is the maximum y value, B is the EC50 determined by XLFit, C is the minimum y value, and D is the slope value. The maximum value A corresponds to the amount of the product detected without an inhibitor, and C corresponds to the amount of the product detected in the G402 cells expressing an empty plasmid.
(§5) The EC50 value of the compound of the present invention was determined by the above G-402 experiment system. The activity of the CYP11B2 enzyme was determined under the conditions of 1 µM 11-deoxycorticosterone and a variable amount of the inhibitor, and the activity of the CYP11B1 enzyme was determined under the conditions of 1 µM 11-deoxycortisol and a variable amount of the inhibitor.

human CYP11B1 = biological target: T2, human CYP11B1 (Homo sapiens, UniProt P15538); experiment: G-402 cell enzyme experiment, CYP11B1 (cortisol product, HTRF), selectivity versus CYP11B2; assay type: cell-based; settings: human selective factor: ratio of CYP11B1 EC50 to CYP11B2 EC50; G-402 cells
T2 construct: The main elements of an expression plasmid include ORF of human CYP11B1 or human CYP11B2; expressed in transfected cells
T2 sequence (P15538 25-503): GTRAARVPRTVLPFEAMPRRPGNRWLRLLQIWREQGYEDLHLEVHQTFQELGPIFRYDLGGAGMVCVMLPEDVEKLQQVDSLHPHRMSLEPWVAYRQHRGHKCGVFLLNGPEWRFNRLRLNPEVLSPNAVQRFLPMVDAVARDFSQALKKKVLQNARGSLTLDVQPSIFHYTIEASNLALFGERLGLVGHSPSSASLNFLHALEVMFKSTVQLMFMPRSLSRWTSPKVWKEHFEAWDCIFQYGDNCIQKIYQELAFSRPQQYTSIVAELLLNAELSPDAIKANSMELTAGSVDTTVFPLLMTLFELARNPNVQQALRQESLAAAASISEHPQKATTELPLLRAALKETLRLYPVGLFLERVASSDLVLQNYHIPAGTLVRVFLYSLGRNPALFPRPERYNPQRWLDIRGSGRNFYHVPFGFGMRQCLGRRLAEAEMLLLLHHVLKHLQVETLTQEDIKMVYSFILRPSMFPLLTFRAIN
Text: as §1, §2, §3, §4, §5

| EC50 (human CYP11B2) | hsF (human CYP11B1) | SMILES |
| --- | --- | --- |
| 26 nM | 2766x | CCC(=O)N1CC2(C1)CN(c1cncc(-c3ccc4nc(OC)ccc4c3)c1)C2 [Example 36, 1-(6-(5-(2-methoxyquinolin-6-yl)pyridin-3-yl)-2,6-diazaspiro[3.3]heptan-2-yl)propan-1-one] |
| 35 nM |  | CCC(=O)NC1CCCc2c(-c3cc(F)c4c(c3)CCc3nncn3-4)cncc21 (stereo not shown) [Example 37, N-(4-(9-fluoro-4,5-dihydro-[1,2,4]triazolo[4,3-a]quinolin-7-yl)-5,6,7,8-tetrahydroisoquinolin-8-yl)propanamide] |
| 13 nM | 2541x | COc1ccc2cc(-c3cncc(NC4CN(C(=O)c5cnn(C)c5)C4)c3)ccc2n1 [Example 40, (3-((5-(2-methoxyquinolin-6-yl)pyridin-3-yl)amino)azetidin-1-yl)(1-methyl-1H-pyrazol-4-yl)methanone] |
| 50 nM | > 4023x | COc1ccc2cc(-c3cncc(N4CC5(CN(C(=O)c6cnn(C7CC7)c6)C5)C4)c3)ccc2n1 [Example 43, (1-cyclopropyl-1H-pyrazol-4-yl)(6-(5-(2-methoxyquinolin-6-yl)pyridin-3-yl)-2,6-diazaspiro[3.3]heptan-2-yl)methanone] |
| 8 nM |  | COc1ccc2cc(-c3cncc(N4CCN(C(=O)c5cnn(C)c5)CC4)c3)ccc2n1 [Example 50, (4-(5-(2-methoxyquinolin-6-yl)pyridin-3-yl)piperazin-1-yl)(1-methyl-1H-pyrazol-4-yl)methanone] |
| 24 nM | 157x | COc1ccc2cc(-c3cncc(N4CC5(CCN(C(=O)c6cnn(C)c6)C5)C4)c3)ccc2n1 [Example 51, (2-(5-(2-methoxyquinolin-6-yl)pyridin-3-yl)-2,6-diazaspiro[3.4]octane-6-yl)(1-methyl-1H-pyrazol-4-yl)methanone] |
| 21 nM | 404x | COc1ccc2cc(-c3cncc(NC4CN(C(=O)c5cnn(C6CC6)c5)C4)c3)ccc2n1 [Example 54, (1-cyclopropyl-1H-pyrazol-4-yl)(3-((5-(2-methoxyquinolin-6-yl)pyridin-3-yl)amino)azetidin-1-yl)methanone] |
| 7 nM | 159x | COc1ccc2cc(-c3cncc(NC4CCN(C(=O)c5cnn(C)c5)CC4)c3)ccc2n1 [Example 56, (4-((5-(2-methoxyquinolin-6-yl)pyridin-3-yl)amino)piperidin-1-yl)(1-methyl-1H-pyrazol-4-yl)methanone] |
| 14 nM | 174x | COc1ccc2cc(-c3cncc(N4CC5(CCN(C(=O)c6cnn(C)c6)CC5)C4)c3)ccc2n1 [Example 62, (2-(5-(2-methoxyquinolin-6-yl)pyridin-3-yl)-2,7-diazaspiro[3.5]nonan-7-yl)(1-methyl-1H-pyrazol-4-yl)methanone] |
| 6 nM | 1912x | COc1ccc2cc(-c3cncc(N4CC5(CC(NC(=O)c6cnn(C)c6)C5)C4)c3)ccc2n1 [Example 63, N-(2-(5-(2-methoxyquinolin-6-yl)pyridin-3-yl)-2-azaspiro[3.3]heptan-6-yl)-1-methyl-1H-pyrazole-4-carboxamide] |
| 32 nM |  | CCC(=O)NC1CC2(C1)CN(c1cncc(-c3ccc4nc(OC)ccc4c3)c1)C2 [Example 64, N-(2-(5-(2-methoxyquinolin-6-yl)pyridin-3-yl)-2-azaspiro[3.3]heptan-6-yl)propanamide] |
| 89 nM |  | CCC(=O)N[C@@H]1CCCc2c(-c3ccc4c(c3)sc(=O)n4C)cncc21 [Example 65, (R)-N-(4-(3-methyl-2-oxo-2,3-dihydrobenzo[d]thiazol-6-yl)-5,6,7,8-tetrahydroisoquinolin-8-yl)propanamide] |
| 33 nM |  | CCC(=O)Nc1cccc2c(-c3ccc4nc(OC)ccc4c3)cncc12 [Example 68, N-(4-(2-methoxyquinolin-6-yl)isoquinolin-8-yl)propanamide] |
| 55 nM | 252x | Cn1c(=O)ccc2cc(-c3cncc(C4=CCN(S(=O)(=O)C5CC5)CC4)c3)ccc21 [Example 70, 6-(1'-(cyclopropylsulfonyl)-1',2',3',6'-tetrahydro-[3,4'-bipyridin]-5-yl)-1-methylquinolin-2(1H)-one] |
| 4 nM |  | COc1ccc2cc(-c3cncc(N4CCC(NC(=O)c5cnn(C)c5)CC4)c3)ccc2n1 [Example 71, N-(1-(5-(2-methoxyquinolin-6-yl)pyridin-3-yl)piperidin-4-yl)-1-methyl-1H-pyrazole-4-carboxamide] |
| 10 nM |  | [2H]C([2H])([2H])N(C(=O)c1cnn(C)c1)C1CCN(c2cncc(-c3ccc4nc(OC)ccc4c3)c2)CC1 [Example 72, N-(1-(5-(2-methoxyquinolin-6-yl)pyridin-3-yl)piperidin-4-yl)-1-methyl-N-(methyl-d3)-1H-pyrazole-4-carboxamide] |
| 17 nM |  | COCC(=O)N1CC2(C1)CN(c1cncc(-c3ccc4nc(OC)ccc4c3)c1)C2 [Example 80, 2-methoxy-1-(6-(5-(2-methoxyquinolin-6-yl)pyridin-3-yl)-2,6-diazaspiro[3.3]heptan-2-yl)ethan-1-one] |
| 5 nM | 261x | COc1ccc2cc(-c3cncc(N4CC5(CN(C(=O)C6(C#N)CC6)C5)C4)c3)ccc2n1 [Example 81, 1-(6-(5-(2-methoxyquinolin-6-yl)pyridin-3-yl)-2,6-diazaspiro[3.3]heptane-2-carbonyl)cyclopropane-1-carbonitrile] |
| 18 nM | 842x | COc1ccc2cc(-c3cncc(N4CC5(CN(C(=O)C6CC6)C5)C4)c3)ccc2n1 [Example 82, cyclopropyl (6-(5-(2-methoxyquinolin-6-yl)pyridin-3-yl)-2,6-diazaspiro[3.3]heptan-2-yl)methanone] |
| 8 nM | 1652x | COc1ccc2cc(-c3cncc(N4CC5(CN(C(=O)c6ccc(C)nc6)C5)C4)c3)ccc2n1 [Example 84, (6-(5-(2-methoxyquinolin-6-yl)pyridin-3-yl)-2,6-diazaspiro[3.3]heptan-2-yl)(6-methylpyridin-3-yl)methanone] |
| 9 nM |  | CN(c1cncc(-c2ccc3c(c2)sc(=O)n3C)c1)C1CN(C(=O)c2cnn(C)c2)C1 [Example 89, 3-methyl-6-(5-(methyl(1-(1-methyl-1H-pyrazole-4-carbonyl)azetidin-3-yl)amino)pyridin-3-yl)benzo[d]thiazol-2(3H)-one] |
| 23 nM |  | CCS(=O)(=O)N1CC(Oc2cncc(-c3ccc4c(c3)sc(=O)n4C)c2)C1 [Example 90, 6-(5-((1-(ethylsulfonyl)azetidin-3-yl)oxy)pyridin-3-yl)-3-methylbenzo[d]thiazol-2(3H)-one] |
